Measured values: publication PMC11847706, “Deep learning enhances the prediction of HLA class I-presented CD8^+ T cell epitopes in foreign pathogens” (Nature Machine Intelligence, 2025)

Legend:
PBMCs = assay: Ex vivo IFNγ ELISpot assay; type: cell-based, human; details: for Effector CD8^+ T cell responses across multiple individuals: ex vivo IFNγ ELISpot, HLA-A*02:01-restricted, Fig. 6c
Method: IFNγ ELISpot assays were performed according to the manufacturer’s instructions (Mabtech). PBMCs were incubated with individual peptides from EBV at a final concentration of 0.5 μg ml^−1 for 16–18 h. Positive controls were anti-human CD3 (Clone OKT3, BioLegend, 0.5 μg ml^−1) and anti-human CD28 (Clone CD28.2, BioLegend, 0.5 μg ml^−1) antibodies. The number of spot-forming units in the highest-value DMSO control well was subtracted from each experimental well. Responses were considered positive if both replicates had greater than or equal to five spot-forming units per well above background.

CD8^+ T cells = assay: Ex vivo proliferation assay (CellTrace Far Red); type: cell-based, human; details: HLA-A*02:01-restricted, Fig. 6d
Method: PBMCs were suspended at 1 × 10^6 cells per ml in 1 μM CellTrace Far Red dye (ThermoFisher) in PBS and incubated at 37 °C for 20 min. Cells were protected from light and mixed every 5 min during the incubation. RPMI supplemented with 10% fetal bovine serum was added to quench the reaction for 5 min, followed by centrifugation at 1,500 rpm for 3 min before resuspension in culture media. Cells were plated into 96-well U-bottom plates (Corning) (200,000 cells per well in 200 μl of culture media) and incubated with individual EBV peptides at a concentration of 0.5 μg ml^−1 for 5 days. Cells were washed with PBS supplemented with 2% fetal bovine serum and stained with anti-human CD3-BUV395 (Clone UCHT1, BD Biosciences, 1:100 dilution), anti-human CD4-PE-Cy7 (Clone OKT4, BioLegend, 1:100 dilution), anti-human CD8-BV605 (Clone SK1, BioLegend, 1:100 dilution) and live/dead violet viability dye (Life Technologies). Cells were washed and fixed in 2% paraformaldehyde and flow cytometric analysis was performed on a BD LSR Fortessa (BD Biosciences).

HSDYQPLGTQDQSLY
Immunogenicity (T cell reactivity) (PBMCs; HLA-A*02:01, 15mer, LMP2A: 71-85): immunogenic

SIIPRTPDV [A*02-SV9]
Effector CD8^+ T cell responses across multiple individuals (PBMCs): capable of eliciting | Memory CD8^+ T cell responses across multiple individuals (CD8^+ T cells): capable of eliciting

YVLDHLIVV [A*02-YV9]
Effector CD8^+ T cell responses across multiple individuals (PBMCs): capable of eliciting | Memory CD8^+ T cell responses across multiple individuals (CD8^+ T cells): capable of eliciting
